We go through four molecules from patent US20200399329A1, “ANTIMICROBIAL PEPTIDES” (priority 2015, published 2020).

For test [1], the system named is P. aeruginosa BAA-2110. It counts as cell-based, Pseudomonas aeruginosa. Here is the method:
(§1) In order to determine the MIC values of the peptides, growth and inhibition of various bacteria were monitored after treatment with the peptides of the invention (Table 6).
(§2) E. coli bacteria were cultured with or without OMN6 in increasing concentrations of 0.8-200 μM and with or without Fetal Bovine Serum 10% for 17-20 hours. The growth of the bacteria was continuously monitored via spectrophotometry at 600 nm. As bacterial growth progresses, OD600 nm values rise, and where the growth is inhibited OD600 nm values remain constant.
(§3) The experimental system and parameters described here were used to determine the MIC values of OMN2, OMN6, OMN7 and OMN11 on various bacteria strains (Table 7 and Table 8).

The subject of test [2] is P. aeruginosa BAA-2110. Format: cell-based, Pseudomonas aeruginosa. The method, then:
(§4) In order to determine the Minimal Bactericidal Concentration (MBC) values of the peptides, colony formation of various bacteria strains was monitored and determined after treatment with the peptides of the invention. Multi-Drug Resistant A. baumannii bacteria were cultured with or without OMN6 in increasing concentrations, as is detailed in FIG. 6 and Example 6. Immediately afterwards, samples of each experimental group were diluted to 1×10^4 to 1×10^6 as necessary, and further, the samples were plated on appropriate medium-agar plates. All the plates were incubated at 37° C. for 24-48 hours. Colonies were counted and CFU/ml in the original sample, prior to plating, were calculated and determined. An example of the plates, after incubation, is presented in FIG. 7 where the plate on the left side of the image is the CTRL sample treated with DDW and in the right side of the image increasing concentrations of OMN6 are presented, as specified therein.
(§5) The experimental system and parameters described here were used to determine the MBC values of OMN2, OMN6, OMN7 and OMN11 on various bacteria strains with and without the supplementation of 10% FBS (Table 6 and Table 8).
The source holds these as a separate data set.

For test [3], the system named is K. pneu NDM1 BAA-2473. It counts as cell-based, Klebsiella pneumoniae. Here is the method:
(§6) In order to determine the MIC values of the peptides, growth and inhibition of various bacteria were monitored after treatment with the peptides of the invention (Table B). E. coli, K. pneumoniae, P. aeruginosa and Salmonella bacteria were cultured at 37° C. and at 5×10^6 CFU/ml in a standard 96-well-plate, in Mueller Hinton broth. […] The growth of the bacteria was continuously monitored via spectrophotometry at a wave-length of 625 nm. As bacterial growth progresses, Optical density at 625 nm (OD625 nm) values increase, and where the bacterial growth is inhibited, OD625 nm values remain constant. The experimental system and parameters described herein were used to determine the MIC values of OMN3, OMN5, OMN8 and OMN9 on various bacteria strains (Table B). Using the standard MHB MIC testing for antibiotic activity

In test [4] the test system is E. coli strains. It counts as cell-based. The method, then: as §6
The test system of test [5] is E. coli ESBL BAA-198. Format: cell-based, Escherichia coli. The method, then:
as §6

Test [6] has as its system E. coli CR BAA-2452. It counts as cell-based, Escherichia coli. Here is the method:
as §6

The subject of test [7] is E. coli Sens. 25922 QC strain. Format: cell-based, Escherichia coli. Here is the method: as §6
In test [8] the test system is K. pneu Sens. 700603 QC strain. Format: cell-based, K. pneumoniae. The method, then:
as §6

Test [9] deals with K . pneu KPC + BAA-2344. Format: cell-based, Klebsiella pneumoniae. Here is the method: as §6
Test [10] has as its system P. aeruginosa BAA-2795. It counts as cell-based, Pseudomonas aeruginosa. The method, then: as §6
In test [11] the test system is P. aeruginosa BAA-2796. It counts as cell-based, Pseudomonas aeruginosa. The method, then: as §6
The subject of test [12] is E. coli Sens. 25922. Format: cell-based, Escherichia coli. The following applies: Sens. 25922. The method, then: as §1, §2, §3
Test [13] deals with E. coli Sens. 25922. Format: cell-based, Escherichia coli. Here is the method: as §4, §5

Converted amounts (≈) assume the structure as drawn. Where a SMILES comes first, the peptide text is derived from it. Bridges are numbered along the chain shown (N, C = ends).

Take `CC[C@H](C)[C@H](NC(=O)CNC(=O)[C@H](CC(=O)O)NC(=O)[C@H](CCCNC(=N)N)NC(=O)[C@@H](NC(=O)[C@H](CC(N)=O)NC(=O)[C@H](CCC(N)=O)NC(=O)CNC(=O)[C@@H](NC(=O)[C@H](CCCCN)NC(=O)[C@H](CCC(=O)O)NC(=O)[C@@H](NC(=O)[C@H](CCCCN)NC(=O)[C@H](CCCCN)NC(=O)[C@H](Cc1ccccc1)NC(=O)[C@@H](NC(=O)[C@H](CCCCN)NC(=O)[C@H](Cc1c[nH]c2ccccc12)NC(=O)[C@H](CCCNC(=N)N)NC(=O)[C@H](CS)NC(=O)[C@@H](N)CCSC)[C@@H](C)CC)[C@@H](C)CC)C(C)C)[C@@H](C)CC)C(=O)N[C@H](C(=O)N[C@@H](CCCCN)C(=O)N[C@@H](C)C(=O)NCC(=O)N1CCC[C@H]1C(=O)N[C@@H](C)C(=O)N[C@H](C(=O)N[C@@H](C)C(=O)N[C@H](C(=O)N[C@H](C(=O)NCC(=O)N[C@@H](CCC(N)=O)C(=O)N[C@@H](C)C(=O)N[C@@H](C)C(=O)N[C@H](C(=O)N[C@H](C(=O)N[C@@H](CS)C(N)=O)[C@@H](C)CC)[C@@H](C)O)C(C)C)C(C)C)C(C)C)C(C)C` [OMN7] (H-MCRWKIFKKIEKVGQNIRDGIVKAGPAVAVVGQAATIC-NH2; N-terminus and C-terminus assumed): in [1], the MIC (usually the least concentration at which growth counts as inhibited) was determined as 50 µM (≈ 205 µg/mL). Moreover, the MBC (as a rule, the lowest tested concentration that kills the bacteria rather than only halting them) in [2] stood at 50 µM (≈ 205 µg/mL).

For the molecule `CC[C@H](C)[C@@H]1NC(=O)CNC(=O)[C@H](CC(=O)O)NC(=O)[C@H](CCCNC(=N)N)NC(=O)[C@H]([C@@H](C)CC)NC(=O)[C@H](CC(N)=O)NC(=O)[C@H](CCCNC(=N)N)NC(=O)CNC(=O)[C@H](CCSC)NC(=O)[C@H](CCCCN)NC(=O)[C@H](CCC(=O)O)NC(=O)[C@H]([C@@H](C)CC)NC(=O)[C@H](CCCCN)NC(=O)[C@H](CCCCN)NC(=O)[C@H](Cc2ccccc2)NC(=O)[C@H]([C@@H](C)CC)NC(=O)[C@H](CCCCN)NC(=O)[C@H](Cc2c[nH]c3ccccc23)NC(=O)[C@H](CCCNC(=N)N)NC(=O)[C@@H](NC(=O)[C@@H](N)CCSC)CSSC[C@@H](C(=O)O)NC(=O)[C@H]([C@@H](C)CC)NC(=O)[C@H](C)NC(=O)[C@H](CCCCN)NC(=O)[C@H](C)NC(=O)[C@H](CO)NC(=O)CNC(=O)[C@H](CC(C)C)NC(=O)[C@H](C(C)C)NC(=O)[C@H](CCC(=O)O)NC(=O)[C@H]([C@@H](C)CC)NC(=O)[C@H](C)NC(=O)[C@@H]2CCCN2C(=O)CNC(=O)[C@H](C)NC(=O)[C@H](C)NC(=O)[C@H](C(C)C)NC1=O` [OMN8] (H-MCRWKIFKKIEKMGRNIRDGIVAAGPAIEVLGSAKAIC-OH; disulfide 2-38; N-terminus and C-terminus assumed), the MIC worked out at 64 µg/mL (≈ 15.3 µM) in test [3], 16 µg/mL (≈ 3.83 µM) in test [5], 32 µg/mL (≈ 7.67 µM) in test [6] and 32 µg/mL (≈ 7.67 µM) in test [7]. The “MIC for E. coli strains” value in test [4] is 16 to 32 µg/mL.

Take `CC[C@H](C)[C@@H]1NC(=O)CNC(=O)[C@H](CC(N)=O)NC(=O)[C@H](CCCNC(=N)N)NC(=O)[C@H]([C@@H](C)CC)NC(=O)[C@H](CC(N)=O)NC(=O)[C@H](CCCNC(=N)N)NC(=O)CNC(=O)[C@H](C(C)C)NC(=O)[C@H](CCCCN)NC(=O)[C@H](CCC(=O)O)NC(=O)[C@H]([C@@H](C)CC)NC(=O)[C@H](CCCCN)NC(=O)[C@H](CCCCN)NC(=O)[C@H](Cc2ccccc2)NC(=O)[C@H]([C@@H](C)CC)NC(=O)[C@H](CCCCN)NC(=O)[C@H](Cc2c[nH]c3ccccc23)NC(=O)[C@H](CCCCN)NC(=O)[C@@H](NC(=O)[C@@H](N)CCSC)CSSC[C@@H](C(=O)O)NC(=O)[C@H](CC(C)C)NC(=O)[C@H](C)NC(=O)[C@H](CCCCN)NC(=O)[C@H](C)NC(=O)[C@H](CCC(=O)O)NC(=O)CNC(=O)[C@H](CC(C)C)NC(=O)[C@H](C(C)C)NC(=O)[C@H](C)NC(=O)[C@H](C(C)C)NC(=O)[C@H](C)NC(=O)[C@@H]2CCCN2C(=O)CNC(=O)[C@H](C)NC(=O)[C@H](CCCCN)NC(=O)[C@H]([C@@H](C)CC)NC1=O` [OMN9] (H-MCKWKIFKKIEKVGRNIRNGIIKAGPAVAVLGEAKALC-OH; disulfide 2-38; N-terminus and C-terminus assumed): the MIC in test [8] worked out at 32 µg/mL (≈ 7.7 µM); in test [3], 32 µg/mL (≈ 7.7 µM); in test [9] it was 64 µg/mL (≈ 15.4 µM); in [10], 64 µg/mL (≈ 15.4 µM); in test [11] it was 64 µg/mL (≈ 15.4 µM); in [5], 4 µg/mL (≈ 0.963 µM). The MIC in test [6] and in test [7] was 8 µg/mL (≈ 1.93 µM) throughout. Besides, the “MIC for E. coli strains” value in test [4] is 4 to 8 µg/mL.

For the molecule `CC[C@H](C)[C@H](NC(=O)CNC(=O)[C@H](CCC(=O)O)NC(=O)[C@H](CO)NC(=O)[C@@H](NC(=O)[C@H](CCCNC(=N)N)NC(=O)[C@H](CCCCN)NC(=O)[C@H](CCCCN)NC(=O)[C@H](C)NC(=O)[C@H](CO)NC(=O)[C@H](CC(N)=O)NC(=O)[C@H](CCC(=O)O)NC(=O)[C@H](CC(C)C)NC(=O)[C@H](CCCCN)NC(=O)[C@H](CCCCN)NC(=O)[C@H](C)NC(=O)[C@@H](NC(=O)[C@H](CCCCN)NC(=O)[C@H](CO)NC(=O)[C@H](CC(C)C)NC(=O)[C@H](Cc1c[nH]c2ccccc12)NC(=O)[C@H](CO)NC(=O)[C@H](CS)NC(=O)[C@@H](N)CCSC)[C@@H](C)O)[C@@H](C)CC)C(=O)N[C@@H](C)C(=O)N[C@H](C(=O)N[C@@H](C)C(=O)N[C@H](C(=O)N[C@@H](CCC(N)=O)C(=O)NCC(=O)NCC(=O)N1CCC[C@H]1C(=O)N[C@@H](CCCNC(=N)N)C(=O)N[C@@H](CS)C(N)=O)[C@@H](C)CC)[C@@H](C)CC` [OMN11] (H-MCSWLSKTAKKLENSAKKRISEGIAIAIQGGPRC-NH2; N-terminus and C-terminus assumed), the MIC in test [1] came out at 40 µM (≈ 147 µg/mL); in test [12], 25 µM (≈ 91.9 µg/mL). In addition, the MBC in [2] came out at 40 µM (≈ 147 µg/mL); in [13] it was 25 µM (≈ 91.9 µg/mL).
